{"source": "patent US7381521B2", "about": "“Anti-pathogenic composition useful in blood preservation” (Altachem Pharma Ltd., priority 2001, dated 2008)", "key": {"[1]": {"test_system": "human fibroblastic cells", "assay": "Cytotoxicity check of the products on human fibroblastic cells", "type": "cell-based", "conditions": "0.04% solution at a dilution of 10^−3; 0.1 ml in 1 ml medium; 3 days", "experimental": "Cytotoxicity checks are conducted on the products for cellular cultures used in the tests, that is to say the human fibroblastic cells.\nThe cells are cultivated on a Dulbecco medium enriched with 10% fetal calf serum; at the moment of their use, the cells are washed and the same culture medium is used but without calf serum.\nFor each product tested or each composition, 10 tubes of cellular culture were used and after inoculation of the product, the tubes were kept under observation for 3 days.\nEach product was, in succession, used pure and at dilutions of 10^−1, 10^−2, 10^−3 and added to culture tubes containing 1 ml of nutrient medium in a volume of 0.1 ml."}, "[2]": {"test_system": "S. aureus ATCC 6538", "assay": "Test 2 (DGHM), growth inhibition by dilutions, 72 hours at 37° C.", "type": "cell-based, Staphylococcus aureus", "experimental": "(§1) Another test was carried out a basis of the following solutions • 100 ml of a 0.1% solution of chlorohexidine digluconate (pH 6); and • 100 ml of a 0.1% solution of Bardac22®.\n(§2) The activity of these solutions, alone or in combination, was more particularly tested in respect of Staphylococcus aureus ATCC 6538, Escherichia coli ATCC 11229 and Candida albicans ATCC 10231.\n(§3) The tests were conducted in accordance with the procedure described in Chapter I/2.1 and 2.2 of Tichtlinien für die Prüfung und Bewertung chemischer Desinfektionsverfahren der DGHM/Guidelines for Testing and Evaluating Chemical Disinfection Processes of DGHM as at 1.1, 1981.\n(§4) Tables IX, X and XI respectively illustrate the bactericidal and fungicidal activity of a 0.1% aqueous solution of chlorohexidine digluconate, a 0.1% aqueous solution of Bardac22® and a mixture of equal parts of both compounds. The procedures of which these Tables illustrate the results comprise incubation of 72 hours at 37° C. and the use of the following inactivating substances as controls: • A: 3% Tween®80+0.3% lecithin+0.1% cysteine • B: 3% Tween®80+3% saponin+0.1% cysteine+0.1% histidine; • C: 3% Tween®80+0.3% lecithin+0.1% histidine+0.5% sodium thiosulphate.\n(§5) In these Tables, the sign “+” indicates an increase and the sign “−” denotes the absence of growth."}, "[3]": {"test_system": "E. coli ATCC 11229", "assay": "Test 2 (DGHM), growth inhibition by dilutions, 72 hours at 37° C.", "type": "cell-based, Escherichia coli", "experimental": "as §1, §2, §3, §4, §5"}, "[4]": {"test_system": "C. albicans ATCC 1031", "assay": "Test 2 (DGHM), action as a function of disinfection time at 22° C., 8 × 10^7 organisms/ml", "type": "cell-based, Candida albicans", "experimental": "as §1, §2, §3"}, "[5]": {"test_system": "erythrocytes in heparinized bovine blood", "assay": "In-vitro hemolysis of erythrocytes in heparinized whole blood, absorbance at 413 nm", "conditions": "1 hour at 37° C.", "protocol": "The effect of the compounds on the in-vitro hemolysis of erythrocytes in heparinized whole blood is monitored by a spectrophotometric method.\nVarious formulations and concentrations of the test compound are added to heparinized bovine blood and mixed gently in a 1.5 ml microcentrifuge tube. The sample is allowed to incubate for 1 hour at 37° C. At the end of incubation, the samples are removed from the incubator and centrifuged at 2000 rpm for 5 minutes. A 200 μl aliquot of the supernatant is removed from each sample into a 96 well microtiter plate and read at 413 nm. The absorbance of the test sample is compared to the control sample containing phosphate buffered saline, pH 7.2."}, "[6]": {"conditions": "0.00625% vol/vol, inactivator A"}, "[7]": {"conditions": "0.00625% vol/vol, inactivator B"}, "[8]": {"conditions": "0.00625% vol/vol, inactivator C"}, "[9]": {"conditions": "0.00625% vol/vol, no inactivator"}, "[10]": {"conditions": "0.0125% vol/vol, no inactivator"}}, "note": "Several values for one entry are separate records, joined by “and”; a condition that tells them apart may be missing. Identical values can stand only once.", "data": [{"smiles": "CCCCCCCCCC[N+](C)(C)CCCCCCCCCC.[Cl-]", "note": "[Bardac ®, didecyl dimethyl ammonium chloride]", "values": [{"measurement": "toxicity for the cell cultures", "setting": "[1]", "value": "not toxic"}, {"measurement": "concentration of active substance inhibiting growth", "setting": "[2]", "value": 0.0001, "unit": "%"}, {"measurement": "dilution of the 0.1% solution inhibiting growth", "setting": "[2]", "value": 0.1, "unit": "%"}, {"measurement": "growth", "setting": "[2]; [6]", "value": "+"}, {"measurement": "growth", "setting": "[2]; [7]", "value": "+"}, {"measurement": "growth", "setting": "[2]; [8]", "value": "+"}, {"measurement": "growth", "setting": "[2]; [9]", "value": "+"}, {"measurement": "growth", "setting": "[2]; 0.0125% vol/vol, inactivator A", "value": "+"}, {"measurement": "growth", "setting": "[2]; 0.0125% vol/vol, inactivator B", "value": "+"}, {"measurement": "growth", "setting": "[2]; 0.0125% vol/vol, inactivator C", "value": "+"}, {"measurement": "growth", "setting": "[2]; [10]", "value": "+"}, {"measurement": "growth", "setting": "[2]; 0.025% vol/vol, inactivator A", "value": "+"}, {"measurement": "growth", "setting": "[2]; 0.025% vol/vol, inactivator B", "value": "+"}, {"measurement": "growth", "setting": "[2]; 0.025% vol/vol, inactivator C", "value": "+"}, {"measurement": "growth", "setting": "[2]; 0.025% vol/vol, no inactivator", "value": "+"}, {"measurement": "growth", "setting": "[2]; 0.05% vol/vol, inactivator A", "value": "+"}, {"measurement": "growth", "setting": "[2]; 0.05% vol/vol, inactivator B", "value": "+"}, {"measurement": "growth", "setting": "[2]; 0.05% vol/vol, inactivator C", "value": "+"}, {"measurement": "growth", "setting": "[2]; 0.05% vol/vol, no inactivator", "value": "+"}, {"measurement": "growth", "setting": "[2]; 0.1% vol/vol, inactivator A", "value": "+"}, {"measurement": "growth", "setting": "[2]; 0.1% vol/vol, inactivator B", "value": "+"}, {"measurement": "growth", "setting": "[2]; 0.1% vol/vol, inactivator C", "value": "+"}, {"measurement": "growth", "setting": "[2]; 0.1% vol/vol, no inactivator", "value": "−"}, {"measurement": "growth", "setting": "[2]; 0.5% vol/vol, inactivator A", "value": "+"}, {"measurement": "growth", "setting": "[2]; 0.5% vol/vol, inactivator B", "value": "+"}, {"measurement": "growth", "setting": "[2]; 0.5% vol/vol, inactivator C", "value": "+"}, {"measurement": "growth", "setting": "[2]; 0.5% vol/vol, no inactivator", "value": "−"}, {"measurement": "growth", "setting": "[2]; 1.0% vol/vol, inactivator A", "value": "+"}, {"measurement": "growth", "setting": "[2]; 1.0% vol/vol, inactivator B", "value": "+"}, {"measurement": "growth", "setting": "[2]; 1.0% vol/vol, inactivator C", "value": "+"}, {"measurement": "growth", "setting": "[2]; 1.0% vol/vol, no inactivator", "value": "−"}, {"measurement": "concentration of active substance inhibiting growth", "setting": "[3]", "value": 0.0005, "unit": "%"}, {"measurement": "dilution of the 0.1% solution inhibiting growth", "setting": "[3]", "value": 0.5, "unit": "%"}, {"measurement": "growth", "setting": "[3]; [6]", "value": "+"}, {"measurement": "growth", "setting": "[3]; [7]", "value": "+"}, {"measurement": "growth", "setting": "[3]; [8]", "value": "+"}, {"measurement": "growth", "setting": "[3]; [9]", "value": "+"}, {"measurement": "growth", "setting": "[3]; 0.0125% vol/vol, inactivator A", "value": "+"}, {"measurement": "growth", "setting": "[3]; 0.0125% vol/vol, inactivator B", "value": "+"}, {"measurement": "growth", "setting": "[3]; 0.0125% vol/vol, inactivator C", "value": "+"}, {"measurement": "growth", "setting": "[3]; [10]", "value": "+"}, {"measurement": "growth", "setting": "[3]; 0.025% vol/vol, inactivator A", "value": "+"}, {"measurement": "growth", "setting": "[3]; 0.025% vol/vol, inactivator B", "value": "+"}, {"measurement": "growth", "setting": "[3]; 0.025% vol/vol, inactivator C", "value": "+"}, {"measurement": "growth", "setting": "[3]; 0.025% vol/vol, no inactivator", "value": "+"}, {"measurement": "growth", "setting": "[3]; 0.05% vol/vol, inactivator A", "value": "+"}, {"measurement": "growth", "setting": "[3]; 0.05% vol/vol, inactivator B", "value": "+"}, {"measurement": "growth", "setting": "[3]; 0.05% vol/vol, inactivator C", "value": "+"}, {"measurement": "growth", "setting": "[3]; 0.05% vol/vol, no inactivator", "value": "+"}, {"measurement": "growth", "setting": "[3]; 0.1% vol/vol, inactivator A", "value": "+"}, {"measurement": "growth", "setting": "[3]; 0.1% vol/vol, inactivator B", "value": "+"}, {"measurement": "growth", "setting": "[3]; 0.1% vol/vol, inactivator C", "value": "+"}, {"measurement": "growth", "setting": "[3]; 0.1% vol/vol, no inactivator", "value": "+"}, {"measurement": "growth", "setting": "[3]; 0.5% vol/vol, inactivator A", "value": "+"}, {"measurement": "growth", "setting": "[3]; 0.5% vol/vol, inactivator B", "value": "+"}, {"measurement": "growth", "setting": "[3]; 0.5% vol/vol, inactivator C", "value": "+"}, {"measurement": "growth", "setting": "[3]; 0.5% vol/vol, no inactivator", "value": "−"}, {"measurement": "growth", "setting": "[3]; 1.0% vol/vol, inactivator A", "value": "+"}, {"measurement": "growth", "setting": "[3]; 1.0% vol/vol, inactivator B", "value": "+"}, {"measurement": "growth", "setting": "[3]; 1.0% vol/vol, inactivator C", "value": "+"}, {"measurement": "growth", "setting": "[3]; 1.0% vol/vol, no inactivator", "value": "−"}, {"measurement": "growth", "setting": "[4]; 0.05% vol/vol, 1 min", "value": "+"}, {"measurement": "growth", "setting": "[4]; 0.05% vol/vol, 3 min", "value": "+"}, {"measurement": "growth", "setting": "[4]; 0.05% vol/vol, 5 min", "value": "+"}, {"measurement": "growth", "setting": "[4]; 0.05% vol/vol, 15 min", "value": "+"}, {"measurement": "growth", "setting": "[4]; 0.05% vol/vol, 30 min", "value": "+"}, {"measurement": "growth", "setting": "[4]; 0.05% vol/vol, 60 min", "value": "+"}, {"measurement": "growth", "setting": "[4]; 0.1% vol/vol, 1 min", "value": "+"}, {"measurement": "growth", "setting": "[4]; 0.1% vol/vol, 3 min", "value": "+"}, {"measurement": "growth", "setting": "[4]; 0.1% vol/vol, 5 min", "value": "+"}, {"measurement": "growth", "setting": "[4]; 0.1% vol/vol, 15 min", "value": "+"}, {"measurement": "growth", "setting": "[4]; 0.1% vol/vol, 30 min", "value": "+"}, {"measurement": "growth", "setting": "[4]; 0.1% vol/vol, 60 min", "value": "+"}, {"measurement": "growth", "setting": "[4]; 0.5% vol/vol, 1 min", "value": "+"}, {"measurement": "growth", "setting": "[4]; 0.5% vol/vol, 3 min", "value": "+"}, {"measurement": "growth", "setting": "[4]; 0.5% vol/vol, 5 min", "value": "+"}, {"measurement": "growth", "setting": "[4]; 0.5% vol/vol, 15 min", "value": "+"}, {"measurement": "growth", "setting": "[4]; 0.5% vol/vol, 30 min", "value": "+"}, {"measurement": "growth", "setting": "[4]; 0.5% vol/vol, 60 min", "value": "+"}, {"measurement": "growth", "setting": "[4]; 1% vol/vol, 1 min", "value": "+"}, {"measurement": "growth", "setting": "[4]; 1% vol/vol, 3 min", "value": "+"}, {"measurement": "growth", "setting": "[4]; 1% vol/vol, 5 min", "value": "+"}, {"measurement": "growth", "setting": "[4]; 1% vol/vol, 15 min", "value": "+"}, {"measurement": "growth", "setting": "[4]; 1% vol/vol, 30 min", "value": "−"}, {"measurement": "growth", "setting": "[4]; 1% vol/vol, 60 min", "value": "−"}, {"measurement": "growth", "setting": "[4]; 5% vol/vol, 1 min", "value": "+"}, {"measurement": "growth", "setting": "[4]; 5% vol/vol, 3 min", "value": "+"}, {"measurement": "growth", "setting": "[4]; 5% vol/vol, 5 min", "value": "−"}, {"measurement": "growth", "setting": "[4]; 5% vol/vol, 15 min", "value": "−"}, {"measurement": "growth", "setting": "[4]; 5% vol/vol, 30 min", "value": "−"}, {"measurement": "growth", "setting": "[4]; 5% vol/vol, 60 min", "value": "−"}, {"measurement": "growth", "setting": "[4]; 10% vol/vol, 1 min", "value": "−"}, {"measurement": "growth", "setting": "[4]; 10% vol/vol, 3 min", "value": "−"}, {"measurement": "growth", "setting": "[4]; 10% vol/vol, 5 min", "value": "−"}, {"measurement": "growth", "setting": "[4]; 10% vol/vol, 15 min", "value": "−"}, {"measurement": "growth", "setting": "[4]; 10% vol/vol, 30 min", "value": "−"}, {"measurement": "growth", "setting": "[4]; 10% vol/vol, 60 min", "value": "−"}, {"measurement": "growth", "setting": "[4]; 25% vol/vol, 1 min", "value": "−"}, {"measurement": "growth", "setting": "[4]; 25% vol/vol, 3 min", "value": "−"}, {"measurement": "growth", "setting": "[4]; 25% vol/vol, 5 min", "value": "−"}, {"measurement": "growth", "setting": "[4]; 25% vol/vol, 15 min", "value": "−"}, {"measurement": "growth", "setting": "[4]; 25% vol/vol, 30 min", "value": "−"}, {"measurement": "growth", "setting": "[4]; 25% vol/vol, 60 min", "value": "−"}, {"measurement": "Concentration at which hemolysis is not observed", "setting": "[5]", "value": "0.001% and 0.0125% and 0.0005%"}]}]}
